The test concerns Abeta 40. Nature of the test: In vivo inhibition of beta-secretase: Abeta 40 reduction in CSF and brain of the rat. To be noted: 10 mpk (unless otherwise noted), after 4 hrs. From the text: In Vivo Inhibition of Beta-Secretase
Several animal models, including mouse, rat, dog, and monkey, may be used to screen for inhibition of beta-secretase activity in vivo following administration of a test compound sample. Animals used in this invention can be wild type, transgenic, or gene knockout animals. […] One to twenty-four hours following the administration of compound, animals are sacrificed, and brains as well as cerebrospinal fluid (CSF) and plasma are removed for analysis of A-beta levels and drug or test compound concentrations (Dovey et al., 2001, Journal of Neurochemistry, 76, 173-181) Beginning at time 0, animals are administered by oral gavage, or other means of delivery such as intravenous injection, an inhibitory test compound of up to 100 mg/kg in a standard, conventional formulation, such as 2% hydroxypropyl methylcellulose, 1% Tween80. A separate group of animals receive 2% hydroxypropyl methylcellulose, 1% Tween80 alone, containing no test compound, and serve as a vehicle-control group. At the end of the test period, animals are sacrificed and brain tissues, plasma or cerebrospinal fluid are collected. Brains are either homogenized in 10 volumes (w/v) of 0.2% diethylamine (DEA) in 50 mM NaCl (Best et al., 2005, Journal of Pharmacology and Experimental Therapeutics, 313, 902-908), or in 10 volumes of 0.5% TritonX-100 in Tris-buffered saline (pH at about 7.6). Homogenates are centrifuged at 355,000 g, 4° C. for 30 minutes. CSF or brain supernatants are then analyzed for the presence of A-beta peptide by specific sandwich ELISA assays based on ECL (Electrochemiluminescence) technology. For example, rat Abeta40 is measured using biotinylated-4G8 (Signet) as a capture antibody and Fab40 (an in-house antibody specific to the C-terminal of Abeta40) as a detection antibody.
Actual vehicles used: Oral: 2% HPMC, 1% Tween80, pH 2.2

The structures appear in SMILES notation.

In the case of `COc1cnc2c(Nc3ccc(F)c([C@]4(C)CS(=O)(=O)C(C)(C)C(N)=N4)c3)nccc2c1` [Example 46, N-(3-((3R)-5-amino-3,6,6-trimethyl-1,1-dioxido-3,6-dihydro-2H-1,4-thiazin-3-yl)-4-fluorophenyl)-3-methoxy-1,7-naphthyridin-8-amine], the “% reduction of rat CSF levels at 10 pmk” value is recorded as 76% and the “% reduction of rat brain levels at 10 mpk” value (from here on “% reduction … at 10 mpk”) is on record as 64%.

Turning to `Cc1cc(OC(F)F)cnc1C(=O)Nc1ccc(F)c([C@@]2(C)N=C(N)C3(CCC3)S(=O)(=O)[C@@H]2F)c1` [Example 132, N-(3-((6S,7R)-9-amino-6-fluoro-7-methyl-5,5-dioxido-5-thia-8-azaspiro[3.5]non-8-en-7-yl)-4-fluorophenyl)-5-(difluoromethoxy)-3-methylpicolinamide], the “% reduction of rat CSF levels at 10 pmk” value is on record as 31% and the “% reduction … at 10 mpk” value was 10%.

Consider `COc1cnc(C(=O)Nc2ccc(F)c([C@]3(CF)CS(=O)(=O)C(C)(C)C(N)=N3)c2)c(C)c1` [Example 377, N-(3-((3S)-5-amino-3-(fluoromethyl)-6,6-dimethyl-1,1-dioxido-3,6-dihydro-2H-1,4-thiazin-3-yl)-4-fluorophenyl)-5-methoxy-3-methyl-2-pyridinecarboxamide], for which the “% reduction of rat CSF levels at 10 pmk” value was 68% and the “% reduction … at 10 mpk” value was 53%.

Regarding `COc1cnc2c(Nc3ccc(F)c([C@]4(CF)CS(=O)(=O)C(C)(C)C(N)=N4)c3)nccc2n1` [Example 447, N-(3-((3S)-5-amino-3-(fluoromethyl)-6,6-dimethyl-1,1-dioxido-3,6-dihydro-2H-1,4-thiazin-3-yl)-4-fluorophenyl)-2-methoxypyrido[3,4-b]pyrazin-5-amine], the “% reduction of rat CSF levels at 10 pmk” value amounted to 62% and the “% reduction … at 10 mpk” value was found to be 42%.

On to `Cc1cc(OC(F)F)cnc1C(=O)Nc1cc([C@]2(C)CS(=O)(=O)C(C)(C)C(N)=N2)c(=O)n(C)c1` [Example 171, (R)—N-(5-(5-amino-3,6,6-trimethyl-1,1-dioxido-3,6-dihydro-2H-1,4-thiazin-3-yl)-1-methyl-6-oxo-1,6-dihydropyridin-3-yl)-5-(difluoromethoxy)-3-methylpicolinamide], for which the “% reduction of rat CSF levels at 10 pmk” value is given as 1% and the “% reduction … at 10 mpk” value worked out at 3%.

`COc1cnc2c(Nc3ccc(F)c([C@]4(C)CS(=O)(=O)C(C)(C)C(N)=N4)c3)nccc2n1` [Example 47, N-(3-((3R)-5-amino-3,6,6-trimethyl-1,1-dioxido-3,6-dihydro-2H-1,4-thiazin-3-yl)-4-fluorophenyl)-2-methoxypyrido[3,4-b]pyrazin-5-amine]: the “% reduction of rat CSF levels at 10 pmk” value is on record as 82% and the “% reduction … at 10 mpk” value is 66%.

With `CC1(C)C(N)=N[C@](CF)(c2cc(Nc3nccc4cc(C#N)cnc34)ccc2F)CS1(=O)=O` [Example 387, 8-((3-((3S)-5-amino-3-(fluoromethyl)-6,6-dimethyl-1,1-dioxido-3,6-dihydro-2H-1,4-thiazin-3-yl)-4-fluorophenyl)amino)-1,7-naphthyridine-3-carbonitrile], the “% reduction of rat CSF levels at 10 pmk” value is given as 43% and the “% reduction … at 10 mpk” value was 27%.

`COc1cnc(C(=O)Nc2ccc(F)c([C@]3(C)CS(=O)(=O)[C@@](C)(F)C(N)=N3)c2)cn1` [Example 30, N-(3-((3R,6R)-5-amino-6-fluoro-3,6-dimethyl-1,1-dioxido-3,6-dihydro-2H-1,4-thiazin-3-yl)-4-fluorophenyl)-5-methoxy-2-pyrazinecarboxamide]: the “% reduction of rat CSF levels at 10 pmk” value stood at 56% and the “% reduction … at 10 mpk” value is listed as 37%.

For the compound `Cc1cc(OC(F)F)cnc1C(=O)Nc1ccc(F)c([C@]2(CF)CS(=O)(=O)C(C)(C)C(N)=N2)c1` [Example 148, (S)—N-(3-(5-amino-3-(fluoromethyl)-6,6-dimethyl-1,1-dioxido-3,6-dihydro-2H-1,4-thiazin-3-yl)-4-fluorophenyl)-5-(difluoromethoxy)-3-methylpicolinamide], the “% reduction of rat CSF levels at 10 pmk” value is reported as 68% and the “% reduction … at 10 mpk” value is 57%.

As for `Cc1cc(OC(F)F)cnc1C(=O)Nc1cnc(F)c([C@]2(C)CS(=O)(=O)C(C)(C)C(N)=N2)c1` [Example 400, N-(5-((3R)-5-amino-3,6,6-trimethyl-1,1-dioxido-3,6-dihydro-2H-1,4-thiazin-3-yl)-6-fluoro-3-pyridinyl)-5-(difluoromethoxy)-3-methyl-2-pyridinecarboxamide], the “% reduction of rat CSF levels at 10 pmk” value is listed as 58% and the “% reduction … at 10 mpk” value amounted to 25%.

`CC1(C)C(N)=N[C@](C)(c2cc(NC(=O)c3ccc(Cl)cn3)cnc2F)CS1(=O)=O` [Example 398, N-(5-((3R)-5-amino-3,6,6-trimethyl-1,1-dioxido-3,6-dihydro-2H-1,4-thiazin-3-yl)-6-fluoro-3-pyridinyl)-5-chloro-2-pyridinecarboxamide]: the “% reduction of rat CSF levels at 10 pmk” value was determined as 63% and the “% reduction … at 10 mpk” value is recorded as 39%.

Take `Cc1cc(Cl)cnc1C(=O)Nc1cnc(F)c([C@]2(C)CS(=O)(=O)C3(CCC3)C(N)=N2)c1` [Example 359, N-(5-((7R)-9-amino-7-methyl-5,5-dioxido-5-thia-8-azaspiro[3.5]non-8-en-7-yl)-6-fluoro-3-pyridinyl)-5-chloro-3-methyl-2-pyridinecarboxamide]: the “% reduction of rat CSF levels at 10 pmk” value is recorded as 55% and the “% reduction … at 10 mpk” value is 24%.

With `COc1cnc2c(Nc3cnc(F)c([C@]4(C)CS(=O)(=O)C(C)(C)C(N)=N4)c3)ncc(F)c2c1` [Example 219, N-(5-((3R)-5-amino-3,6,6-trimethyl-1,1-dioxido-3,6-dihydro-2H-1,4-thiazin-3-yl)-6-fluoro-3-pyridinyl)-5-fluoro-3-methoxy-1,7-naphthyridin-8-amine], the “% reduction of rat CSF levels at 10 pmk” value is on record as 42% and the “% reduction … at 10 mpk” value is recorded as 9%.

As to `CC1(C)C(N)=N[C@](C)(c2cc(NC(=O)c3ccc(F)cn3)ccc2F)CS1(=O)=O` [Example 18, N-(3-((3R)-5-amino-3,6,6-trimethyl-1,1-dioxido-3,6-dihydro-2H-1,4-thiazin-3-yl)-4-fluorophenyl)-5-fluoro-2-pyridinecarboxamide], the “% reduction of rat CSF levels at 10 pmk” value was 73% and the “% reduction … at 10 mpk” value is reported as 57%.

Take `CC1(C)C(N)=N[C@](C)(c2cc(Nc3nccc4cc(Cl)cnc34)ccc2F)CS1(=O)=O` [Example 45, N-(3-((3R)-5-amino-3,6,6-trimethyl-1,1-dioxido-3,6-dihydro-2H-1,4-thiazin-3-yl)-4-fluorophenyl)-3-chloro-1,7-naphthyridin-8-amine]: the “% reduction of rat CSF levels at 10 pmk” value worked out at 63% and the “% reduction … at 10 mpk” value was found to be 34%.

The record behind these values is patent US9556135B2, “Amino-dihydrothiazine and amino-dioxido dihydrothiazine compounds as beta-secretase antagonists and methods of use” (Amgen Inc., priority 2012, dated 2017).
